These results are taken from article PMC7887336, “Altered functional properties of the codling moth Orco mutagenized in the intracellular loop-3” (Scientific Reports, 2021).

Where a chain is given by its changes, count along the chain named. pEC50: −log10 of the molar value. Like-named read-outs stand apart in the source and are kept apart here.

One experiment has as its target T1, CpomOrco+OR3 (Cydia pomonella, UniProt H9A5M3).
T1 sequence (H9A5M3 1-426): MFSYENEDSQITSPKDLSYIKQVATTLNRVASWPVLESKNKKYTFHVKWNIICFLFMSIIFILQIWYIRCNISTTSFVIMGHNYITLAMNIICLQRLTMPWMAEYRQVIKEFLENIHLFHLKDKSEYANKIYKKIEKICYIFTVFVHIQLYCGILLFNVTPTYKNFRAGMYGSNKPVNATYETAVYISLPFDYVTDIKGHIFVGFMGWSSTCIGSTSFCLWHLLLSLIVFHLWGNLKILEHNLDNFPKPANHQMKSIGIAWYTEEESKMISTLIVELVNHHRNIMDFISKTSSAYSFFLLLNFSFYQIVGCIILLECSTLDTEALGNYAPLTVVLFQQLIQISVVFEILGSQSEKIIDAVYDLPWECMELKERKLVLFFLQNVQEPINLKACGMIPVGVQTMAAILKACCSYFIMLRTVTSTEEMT
T1 sequence (H9A5M2 1-473 partner): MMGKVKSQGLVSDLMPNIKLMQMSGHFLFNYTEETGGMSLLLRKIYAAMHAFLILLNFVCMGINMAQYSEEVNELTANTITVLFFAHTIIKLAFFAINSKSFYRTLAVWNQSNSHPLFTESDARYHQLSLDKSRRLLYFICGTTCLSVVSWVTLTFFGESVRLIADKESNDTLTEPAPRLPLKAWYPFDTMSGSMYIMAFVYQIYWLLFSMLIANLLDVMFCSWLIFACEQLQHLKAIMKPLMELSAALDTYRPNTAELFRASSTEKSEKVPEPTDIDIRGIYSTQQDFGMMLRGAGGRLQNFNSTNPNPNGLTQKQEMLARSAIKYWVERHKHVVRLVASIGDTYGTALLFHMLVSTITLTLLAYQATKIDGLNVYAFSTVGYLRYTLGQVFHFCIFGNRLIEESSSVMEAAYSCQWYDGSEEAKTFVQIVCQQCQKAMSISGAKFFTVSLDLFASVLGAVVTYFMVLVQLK
In words: Calcium imaging of HEK293T cells co-expressing CpomOrco and CpomOR3, pear ester stimulation. Format: cell-based. The method, then:
(§1) HEK293 cells lines (HEK293A/HEK293T) were grown in HEK cell media [Dulbecco's modified Eagle's medium containing 10% fetal bovine serum (MP Biomedicals, Solon, OH, USA), 2.0 mM L-glutamine, and 100 µg/mL penicillin/streptomycin (Invitrogen)] at 37 °C and 5% CO2. To test transient expression of wild type CpomOrco and CpomOrco^Q417H variant for calcium imaging and patch-clamp recording, 35-mm petri dishes containing semi-confluent HEK293A cells were transiently transfected. Cells were transfected with 0.6 µg of pcDNA40-DEST carrying the coding sequence of the CpomOrco variant (depending on the experiments). To report expression for calcium imaging experiments, 0.6 µg of a separate plasmid DNA [pEBFP2-Nuc, a gift from Robert Campbell (Addgene plasmid # 1489352)] carrying the coding sequence for a blue fluorescent protein (EBFP) was co-transfected. To report expression in patch-clamp recordings, 1.0 µg of a separate plasmid DNA (pXOOM, Clontech, Mountain View, CA, USA) carrying the coding sequence for a green fluorescent protein (GFP) was co-transfected. Expressions of fluorescent reporter genes were under the regulation of the same promoter for Cpom-genes (CMV). For specific experiments, co-transfections were conducted combining an additional 1.2 µg of pcDNA40-DEST/CpomOR3 or pcDNA40-DEST/CpomOR6a, as we previously described. Co-transfections with CpomOR3 were performed for dose–response experiments to pear ester: CpomOR3 was co-expressed with CpomOrco variants by the use of HEK293T (Fig. 3b); given the reported functional co-expression data of the CpomOrco + OR3 heteromers by the use of these specific cells. In brief, transfection DNAs were dissolved in 100 µL sterile DMEM, mixed with 3.0 µL Calfectin (SignaGen, Rockville, MD, USA) following the recommended protocol. Transfections were conducted overnight for up to 18 h, HEK cell media was replaced with 2.0 mL fresh media to incubate cells at 37 °C for up to 6–8 h, at which point part of the cell culture was spread in the middle of a 35-mm plate as individual cells or small clusters and rinsed at the sides with 2.0 mL fresh HEK media. After splitting, cells were allowed to recover for at least 1 day prior to calcium imaging. […]
(§2) Fluorescence imaging was performed using settings optimized for Imaging Workbench 6 software (INDEC BioSystems, Santa Clara, CA, USA)[14]. […] Each cell was assigned a region of interest (ROI) and changes in fluorescence intensity within each ROI were measured and expressed as the fractional change in fluorescence intensity (dF). Stored time series image stacks were analysed off-line using Imaging Workbench 6, Clampfit 10.5 (Molecular Devices) and SigmaPlot 11 (Systat Software Inc., San Jose, CA, USA). […]

The next experiment deals with T2, CpomOrco^Q417H+OR3 (Cydia pomonella, UniProt H9A5M3).
T2 construct: variant as stated: Q417H
T2 sequence (H9A5M3 1-426): T1 sequence (H9A5M3 1-426)
T2 sequence (H9A5M2 1-473 Q417H partner): T1 sequence (H9A5M2 1-473 partner) with Q417H
As to the kind of experiment: Calcium imaging of HEK293T cells co-expressing CpomOrco^Q417H and CpomOR3, pear ester stimulation. The format is cell-based. On the procedure:
as §1, §2

In the case of `CCCCC/C=C\C=C\C(=O)OCC` [pear ester, ethyl (E,Z)-2,4 decadienoate], the “Hill coefficient (cooperativity coefficient h)” value on CpomOrco+OR3 is given as ~ 4.6; at CpomOrco+OR3 (listed as Pear ester), ~ 4.6 ± 2.4; on CpomOrco^Q417H+OR3, ~ 4.6; at CpomOrco^Q417H+OR3 (listed as Pear ester), ~ 4.6 ± 0.4. Moreover, the pEC50 on CpomOrco+OR3 (Hill fit) is ~3.68; at CpomOrco^Q417H+OR3 (Hill fit), ~3.13. The entries for the “maximum response (Hill fit of calcium response amplitudes)” value at CpomOrco+OR3 (N = 160 cells) and at CpomOrco^Q417H+OR3 (N = 262 cells) were ~ 6.6 ± 0.3 ∆F and ~3.7 ± 0.1 ∆F, respectively.
